Earlier results, collected in patent US20190230969A1, “COMPOSITION OF PURIFIED SOLUBLE MANNANS FOR DIETARY SUPPLEMENTS AND METHODS OF USE THEREOF” (priority 2010, published 2019).

What was measured:
patients = details: in vivo
[1] = test system: normal and castrated rats; details: 10 mg/kg subcutaneously biweekly, 4 weeks

| SMILES | gastrointestinal disturbances (flatulence, abdominal distension, borborygmus, diarrhea) (patients) | effect on BUN and testosterone levels [1] |
| --- | --- | --- |
| C[C@H]1O[C@H](O[C@H]2[C@H](O)[C@@H](O)[C@@H](O[C@H]3[C@H](O)[C@@H](O)C(O)O[C@@H]3CO)O[C@@H]2CO)[C@H](O)[C@@H](O)[C@@H]1N[C@H]1C=C(CO)[C@@H](O)[C@H](O)[C@H]1O (some centres unmarked) [acarbose] | High incidence of gastrointestinal disturbances | – |
| C[C@]12CC[C@H]3[C@@H](CCC4=CC(=O)CC[C@@]43C)[C@@H]1CC[C@@H]2O [testosterone] | – | increases |
